# From patent US20230087342A1, “AZEPANE DERIVATIVE” (Nippon Chemiphar Co., Ltd., priority 2019, published 2023)
# pEC50: −log10 of the molar value.
# How the values were obtained:
# human κ opioid receptors = biological target: T1, human κ opioid receptors (Homo sapiens, UniProt P41145); experiment: Opioid receptor function test (Lance Ultra cAMP kit, agonist activity); assay type: cell-based; details: CHO cells expressing human κ opioid receptors, 10 μM forskolin, 30 minutes
# T1 construct: host or cells: CHO cells
# T1 sequence (P41145 whole entry): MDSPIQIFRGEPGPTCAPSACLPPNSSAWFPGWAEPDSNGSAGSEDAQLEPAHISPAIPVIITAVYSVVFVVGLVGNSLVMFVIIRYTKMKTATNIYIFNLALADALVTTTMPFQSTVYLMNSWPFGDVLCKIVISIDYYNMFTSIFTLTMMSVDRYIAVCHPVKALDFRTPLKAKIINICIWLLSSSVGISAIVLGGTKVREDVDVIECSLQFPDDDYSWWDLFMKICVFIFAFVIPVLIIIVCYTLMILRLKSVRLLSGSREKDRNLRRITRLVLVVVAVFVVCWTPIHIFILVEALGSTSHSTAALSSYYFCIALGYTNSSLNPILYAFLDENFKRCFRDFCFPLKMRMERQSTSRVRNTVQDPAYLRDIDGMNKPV
# How it was run: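 CHO cells expressing human κ opioid receptor incubated 30 min with test compound (10^−14 to 10^−7 M) and 10 μM forskolin in HSS/5 mM HEPES pH 7.4 with 0.5 mM IBMX and 0.1% SA. cAMP measured by TR-FRET (Lance Ultra) 1 h after detection reagent addition.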
# Metabolic stability test = assay type: in vitro ADME; details: human liver microsomes, 0 to 30 minutes; a hydrochloride was used
# Procedure: To determine the unchanged product-residual ratio of the test compound in the reaction sample, human liver microsomes and the test compound were reacted for a predetermined time (0 to 30 minutes). The unchanged product-residual ratio at a reaction time of 0 hours was considered 100%, the residual ratio after incubation was log-linear plotted with respect to the time, a regression line (y=100 e^−kt, k=slope of the line: elimination rate constant) was determined, and the metabolic clearance CLint (mL/min/kg) was calculated using the following formula.
# CLint*=k (−min)×45 (mg MS protein/g liver)×21 (g liver/kg)/MS protein (mg MS protein/mL)
# *: Yamazaki S.; Skaptason J.; Romero D, Vekich S.; Jones HM.; Tan W.; Wilner KD.; Koudriakova T. Drug Metab. Dispos. 2011 March; 39 (3): 383-393.
# ICR male mice = experiment: Mouse acetic acid writhing test; assay type: in vivo; details: hydrochloride
# Procedure: Mouse Acetic Acid Writhing Test
# The analgesic effect of the test compound was evaluated by an acetic acid writhing test. For the experiment, ICR male mice were used and acclimated to a plastic open field for 30 minutes before starting the test. After acclimation, the mice were administered with the test compound (30 to 3000 μg/kg) or water for injection subcutaneously or orally, and once returned to the open field. Thirty minutes after the administration of the test compound, a 0.6% aqueous acetic acid solution was additionally administered to the same mice by intraperitoneal administration. From 10 minutes after administration of the 0.6% aqueous acetic acid solution, the number of writhing reactions (writhing reactions in which the mouse stretches while pressing the abdominal cavity against the floor) induced in the mice was measured for 10 minutes, and the number of writhing reactions was compared with that of a control group (water for injection-administrated group) to evaluate the analgesic effect of the test compound.
Compound,pEC50 (human κ opioid receptors),CLint scaled (Metabolic stability test),"ED50 (ICR male mice; Mus musculus, Oral, read-out: ED50 value (writhing suppressing effect))","Writhing suppression rate (ICR male mice; Oral, dose 300 (μg/kg))","Writhing suppression rate (ICR male mice; Oral, dose 1000 (μg/kg))","Writhing suppression rate (ICR male mice; Subcutaneous, dose 30 (μg/kg))"
"Oc1ccc2c(c1)[C@@]13CCN(CCc4ccc5ccccc5n4)CC[C@@]1(O)[C@@H](C2)N(CC1CC1)CC3 [Example 124, (5aS,6R,11bS)-14-(cyclopropylmethyl)-3-(2-(quinolin-2-yl)ethyl)-2,3,4,5,6,7-hexahydro-6,11b-(epiminoethano)naphtho[1,2-d]azepine-5a,10(1H)-diol]",10.40,14.3 mL/min/kg,,,,
"Cc1cnn(CCN2CC[C@]34CCN(CC5CC5)[C@H](Cc5cc(Br)c(O)cc53)[C@]4(O)CC2)c1 [Example 263, (5aS,6R,11bS)-9-bromo-14-(cyclopropylmethyl)-3-(2-(4-methyl-1H-pyrazol-1-yl)ethyl)-2,3,4,5,6,7-hexahydro-6,11b-(epiminoethano)naphtho[1,2-d]azepine-5a,10(1H)-diol]",9.05,18 mL/min/kg,,,,
"Oc1ccc2c(c1)[C@@]13CCN(CCn4cc(Br)cn4)CC[C@@]1(O)[C@@H](C2)N(CC1CC1)CC3 [Example 61, (5aS,6R,11bS)-3-(2-(4-bromo-1H-pyrazol-1-yl)ethyl)-14-(cyclopropylmethyl)-2,3,4,5,6,7-hexahydro-6,11b-(epiminoethano)naphtho[1,2-d]azepine-5a,10(1H)-diol]",10.55,26 mL/min/kg,,,,
"Cc1cc2c(cc1O)[C@@]13CCN(C(=O)Cc4ccccn4)CC[C@@]1(O)[C@@H](C2)N(CC1CC1)CC3 [Example 291, 1-((5aS,6R,11bR)-14-(cyclopropylmethyl)-5a,10-dihydroxy-9-methyl-1,2,5,5a,6,7-hexahydro-6,11b-(epiminoethano)naphtho[1,2-d]azepin-3(4H)-yl)-2-(pyridin-2-yl)ethan-1-one]",9.26,8 mL/min/kg,,,,
"Cc1cnn(CCN2CC[C@]34CCN(CC5CC5)[C@H](Cc5ccc(O)cc53)[C@]4(O)CC2)c1 [Example 50, (5aS,6R,11bS)-14-(cyclopropylmethyl)-3-(2-(4-methyl-1H-pyrazol-1-yl)ethyl)-2,3,4,5,6,7-hexahydro-6,11b-(epiminoethano)naphtho[1,2-d]azepine-5a,10(1H)-diol]",10.57,8.7 mL/min/kg,0.21 mg/kg,+ (40 ≤ % <60: +),+++ (80 ≤ %: +++),
"Oc1ccc2c(c1)[C@@]13CCN(CCn4cccn4)CC[C@@]1(O)[C@@H](C2)N(CC1CC1)CC3 [Example 45, (5aS,6R,11bS)-3-(2-(1H-pyrazol-1-yl)ethyl)-14-(cyclopropylmethyl)-2,3,4,5,6,7-hexahydro-6,11b-(epiminoethano)naphtho[1,2-d]azepine-5a,10(1H)-diol]",9.77,4.5 mL/min/kg,,,,++ (60 ≤ % <80: ++)
"Cc1cnn(C[C@@H](C)N2CC[C@]34CCN(CC5CC5)[C@H](Cc5ccc(O)cc53)[C@]4(O)CC2)c1 [Example 229, (5aS,6R,11bS)-14-(cyclopropylmethyl)-3-((R)-1-(4-methyl-1H-pyrazol-1-yl)propan-2-yl)-2,3,4,5,6,7-hexahydro-6,11b-(epiminoethano)naphtho[1,2-d]azepine-5a,10(1H)-diol]",10.60,5.1 mL/min/kg,,,,
"NC(=O)c1ccc2c(c1)[C@@]13CCN(C(=O)Cn4cc(C(F)(F)F)cn4)CC[C@@]1(O)[C@@H](C2)N(CC1CC1)CC3 [Example 266, (5aS,6R,11bR)-14-(cyclopropylmethyl)-5a-hydroxy-3-(2-(4-(trifluoromethyl)-1H-pyrazol-1-yl)acetyl)-1,2,3,4,5,5a,6,7-octahydro-6,11b-(epiminoethano)naphtho[1,2-d]azepine-10-carboxamide]",10.13,4.4 mL/min/kg,,,,
"Oc1ccc2c(c1)[C@@]13CCN(CCc4ccccc4)CC[C@@]1(O)[C@@H](C2)N(CC1CC1)CC3 [Example 90, (5aS,6R,11bS)-14-(cyclopropylmethyl)-3-phenethyl-2,3,4,5,6,7-hexahydro-6,11b-(epiminoethano)naphtho[1,2-d]azepine-5a,10(1H)-diol]",9.06,11.6 mL/min/kg,,,,
"Cc1cnn(CCN2CC[C@]34CCN(CC5CC5)[C@H](Cc5cc(Cl)c(O)cc53)[C@]4(O)CC2)c1 [Example 326, (5aS,6R,11bS)-9-chloro-14-(cyclopropylmethyl)-3-(2-(4-methyl-1H-pyrazol-1-yl)ethyl)-2,3,4,5,6,7-hexahydro-6,11b-(epiminoethano)naphtho[1,2-d]azepine-5a,10(1H)-diol]",9.74,10.9 mL/min/kg,,,,
"Cc1cc(CCN2CC[C@]34CCN(CC5CC5)[C@H](Cc5ccc(O)cc53)[C@]4(O)CC2)ns1 [Example 177, (5aS,6R,11bS)-14-(cyclopropylmethyl)-3-(2-(5-methylisothiazol-3-yl)ethyl)-2,3,4,5,6,7-hexahydro-6,11b-(epiminoethano)naphtho[1,2-d]azepine-5a,10(1H)-diol]",10.72,9.5 mL/min/kg,,,,
"COc1c(O)ccc2c1[C@@]13CCN(CCn4cc(C)cn4)CC[C@@]1(O)[C@@H](C2)N(CC1CC1)CC3 [Example 332, (5aS,6R,11bS)-14-(cyclopropylmethyl)-11-methoxy-3-(2-(4-methyl-1H-pyrazol-1-yl)ethyl)-2,3,4,5,6,7-hexahydro-6,11b-(epiminoethano)naphtho[1,2-d]azepine-5a,10(1H)-diol]",9.19,9.2 mL/min/kg,,,,
"CC1C[C@@]2(O)[C@H]3Cc4ccc(O)cc4[C@]2(CCN1C(=O)Cc1ccccn1)CCN3CC1CC1 (stereo partly drawn) [Example 281, 1-((5aS,6R,11bR)-14-(cyclopropylmethyl)-5a,10-dihydroxy-4-methyl-1,2,5,5a,6,7-hexahydro-6,11b-(epiminoethano)naphtho[1,2-d]azepin-3(4H)-yl)-2-(pyridin-2-yl)ethan-1-one]",9.85,13.7 mL/min/kg,,,,
"Oc1ccc2c(c1)[C@@]13CCN(CCc4cscn4)CC[C@@]1(O)[C@@H](C2)N(CC1CC1)CC3 [Example 34, (5aS,6R,11bS)-14-(cyclopropylmethyl)-3-(2-(thiazol-4-yl)ethyl)-2,3,4,5,6,7-hexahydro-6,11b-(epiminoethano)naphtho[1,2-d]azepine-5a,10(1H)-diol]",10.40,,,,,++ (60 ≤ % <80: ++)
"Cc1cnn(CCN2CC[C@]34CCN(CC5CC5)[C@H](Cc5ccc(C(N)=O)cc53)[C@]4(O)CC2)c1 [Example 244, (5aS,6R,11bS)-14-(cyclopropylmethyl)-5a-hydroxy-3-(2-(4-methyl-1H-pyrazol-1-yl)ethyl)-1,2,3,4,5,5a,6,7-octahydro-6,11b-(epiminoethano)naphtho[1,2-d]azepine-10-carboxamide]",9.33,7.7 mL/min/kg,,,,
"Oc1ccc2c(c1)[C@@]13CCN(CCc4nccs4)CC[C@@]1(O)[C@@H](C2)N(CC1CC1)CC3 [Example 31, (5aS,6R,11bS)-14-(cyclopropylmethyl)-3-(2-(thiazol-2-yl)ethyl)-2,3,4,5,6,7-hexahydro-6,11b-(epiminoethano)naphtho[1,2-d]azepine-5a,10(1H)-diol]",9.96,7.5 mL/min/kg,,,,
"NC(=O)c1ccc2c(c1O)[C@@]13CCN(C(=O)Cc4ccccn4)CC[C@@]1(O)[C@@H](C2)N(CC1CC1)CC3 [Example 353, (5aS,6R,11bR)-14-(cyclopropylmethyl)-5a,11-dihydroxy-3-(2-(pyridin-2-yl)acetyl)-1,2,3,4,5,5a,6,7-octahydro-6,11b-(epiminoethano)naphtho[1,2-d]azepine-10-carboxamide]",,7.9 mL/min/kg,,,,
"Cc1cnn(CCN2CC[C@]34CCN(CC5CC5)[C@H](Cc5cc(C(N)=O)c(O)cc53)[C@]4(O)CC2)c1 [Example 295, (5aS,6R,11bS)-14-(cyclopropylmethyl)-5a,10-dihydroxy-3-(2-(4-methyl-1H-pyrazol-1-yl)ethyl)-1,2,3,4,5,5a,6,7-octahydro-6,11b-(epiminoethano)naphtho[1,2-d]azepine-9-carboxamide]",,17.2 mL/min/kg,,,,
"Cc1cnn(CCN2CC[C@]34CCN(CC5CC5)[C@H](Cc5cc(C)c(O)cc53)[C@]4(O)CC2)c1 [Example 262, (5aS,6R,11bS)-14-(cyclopropylmethyl)-9-methyl-3-(2-(4-methyl-1H-pyrazol-1-yl)ethyl)-2,3,4,5,6,7-hexahydro-6,11b-(epiminoethano)naphtho[1,2-d]azepine-5a,10(1H)-diol]",10.07,5.8 mL/min/kg,,,,
